Measurements: the supplement of paper PMC11919725

Columns and labels:
Jurkat [1] = test: cytotoxicity relative to DMSO, 18 h (ratio); higher = less cell death (drugs called cytotoxic fall below 1)
Method in brief: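 Jurkat or primary CD4+/CD8+ T cells (naive, or activated 48 h with CD3/CD28 Dynabeads) were treated 18 h with compound at 1 nM–10 µM (log10 steps) at 37 °C, 5% CO2. Then 100 µl of suspension went into 96-well plates with IncuCyte Cytotox Dye (250 nM final). Cytotoxicity came from IncuCyte fluorescence imaging (×10, five images per well, hourly over 3 h). Signals were corrected for confluency, then normalised to mean DMSO controls.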

Jurkat [2] = test: metabolic activity relative to DMSO, 18 h (ratio); higher = more viable
Method in brief: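 Compound was added at 1 nM–10 µM (log10 steps) for 18 h at 37 °C, 5% CO2 to Jurkat cells or to primary CD4+/CD8+ T cells that were naive or had been activated 48 h with CD3/CD28 Dynabeads. After alamarBlue was added to 10% v/v final, fluorescence (excitation 544 nm, emission 584 nm) was measured 3.5 h later. Values for metabolic activity are normalised to the mean of vehicle controls.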

Jurkat [3] = test: confluency relative to DMSO, 18 h (ratio); higher = more viable
Method in brief: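 Cells (Jurkat, or primary CD4+/CD8+ T cells either naive or stimulated 48 h with CD3/CD28 Dynabeads) were incubated with compound for 18 h at 37 °C, 5% CO2, across 1 nM–10 µM in log10 steps. Each 100 µl suspension was then placed in a 96-well plate with IncuCyte Cytotox Dye and alamarBlue and imaged by phase contrast at ×10, five images per well, hourly over 3 h. Confluency values come from the Basic Analyzer and are relative to the mean of the control wells.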

| Structure (SMILES) | cytotoxicity (Jurkat [1]; 1 nM) | cytotoxicity (Jurkat [1]; 10 nM) | cytotoxicity (Jurkat [1]; 100 nM) | cytotoxicity (Jurkat [1]; 1000 nM) | cytotoxicity (Jurkat [1]; 10000 nM) | metabolic activity (Jurkat [2]; 1 nM) | metabolic activity (Jurkat [2]; 10 nM) | metabolic activity (Jurkat [2]; 100 nM) | metabolic activity (Jurkat [2]; 1000 nM) | metabolic activity (Jurkat [2]; 10000 nM) | confluency (Jurkat [3]; 1 nM) | confluency (Jurkat [3]; 10 nM) | confluency (Jurkat [3]; 100 nM) | confluency (Jurkat [3]; 1000 nM) | confluency (Jurkat [3]; 10000 nM) |
| --- | --- | --- | --- | --- | --- | --- | --- | --- | --- | --- | --- | --- | --- | --- | --- |
| Nc1cc(C(F)(F)F)c(-c2cc(N3CCOCC3)nc(N3CCOCC3)n2)cn1 [Buparlisib] | 1.03 | 1.06 | 0.975 | 0.987 | 0.6 | 0.939 | 0.925 | 0.834 | 0.742 | 0.377 | 1.04 | 1.05 | 0.999 | 1.02 | 0.756 |
| O=c1cc(-c2ccccc2F)[nH]c2cc3c(cc12)OCO3 [CHM-1] | 0.961 | 0.929 | 0.919 | 0.618 | 0.461 | 1.02 | 1.07 | 0.992 | 0.688 | 0.704 | 0.973 | 0.963 | 0.976 | 0.71 | 0.588 |
| O=C(O)C1(C(=O)O)CCC1.[NH2-].[NH2-].[Pt+2] [Carboplatin] | 0.95 | 1.07 | 0.984 | 0.993 | 0.905 | 0.863 | 0.781 | 0.818 | 0.83 | 0.819 | 0.969 | 0.997 | 0.974 | 0.995 | 0.951 |
| CC(C)CC(NC(=O)C(CCc1ccccc1)NC(=O)CN1CCOCC1)C(=O)NC(Cc1ccccc1)C(=O)NC(CC(C)C)C(=O)C1(C)CO1 (stereo not given) [Carfilzomib] | 1.02 | 0.883 | 0.531 | 0.572 | 0.543 | 1.02 | 0.882 | 0.128 | 0.113 | 0.13 | 1 | 0.909 | 0.803 | 0.867 | 0.818 |
| CCS(=O)(=O)N1CCN(c2ccc(Nc3ncc(C(N)=O)c(NC4CC4)n3)cc2)CC1 [Cerdulatinib] | 1.03 | 1.02 | 0.925 | 0.858 | 0.921 | 0.846 | 0.868 | 0.898 | 0.941 | 0.775 | 1.04 | 1.09 | 0.975 | 0.903 | 1.07 |
| N.N.[Cl][Pt][Cl] [Cisplatin] | 0.845 | 0.582 | 0.996 | 0.984 | 1.13 | 0.96 | 0.989 | 0.983 | 0.939 | 1.02 | 0.99 | 1.09 | 1.01 | 0.934 | 1.03 |
| O=C(CCCCCCNC(=O)c1cnc(N(c2ccccc2)c2ccccc2Cl)nc1)NO [Citarinostat] | 1.03 | 1.04 | 0.967 | 0.941 | 0.871 | 0.94 | 1.02 | 0.916 | 0.886 | 0.632 | 0.975 | 1 | 0.987 | 0.98 | 0.949 |
| COc1cc2c(c(OC)c1OC)-c1ccc(OC)c(=O)cc1C(NC(C)=O)CC2 (stereo not given) [Colchicine] | 0.985 | 1.19 | 0.649 | 0.552 | 0.539 | 0.862 | 0.83 | 0.595 | 0.519 | 0.476 | 1 | 1.03 | 0.72 | 0.663 | 0.637 |
| COc1c(OCCCN2CCOCC2)ccc2c3n(c(=NC(=O)c4cnc(N)nc4)nc12)CCN3 [Copanlisib] | 0.843 | 1.05 | 0.885 | 0.619 | 0.712 | 1.04 | 1.06 | 0.753 | 0.523 | 0.435 | 0.918 | 1.05 | 0.903 | 0.789 | 0.932 |
| CC(Oc1cc(-c2cnn(C3CCNCC3)c2)cnc1N)c1c(Cl)ccc(F)c1Cl (stereo not given) [Crizotinib] | 0.908 | 0.369 | 1.08 | 0.848 | 0.768 | 0.831 | 0.944 | 0.836 | 0.975 | 0.882 | 1.1 | 0.657 | 1 | 0.919 | 0.771 |
| O=P1(N(CCCl)CCCl)NCCCO1 (stereo not given) [Cyclophosphamide] | 1.16 | 0.989 | 0.959 | 0.983 | 0.977 | 1.14 | 1.07 | 1.04 | 1.02 | 1.03 | 1.01 | 0.94 | 0.948 | 0.977 | 0.951 |
| CC(C)(C)c1nc(-c2cccc(NS(=O)(=O)c3c(F)cccc3F)c2F)c(-c2ccnc(N)n2)s1 [Dabrafenib] | 0.941 | 0.994 | 0.966 | 0.846 | 0.863 | 0.973 | 1.02 | 0.992 | 0.91 | 0.73 | 0.98 | 1 | 0.973 | 0.971 | 0.965 |
| Cn1c(=O)n(-c2ccc(C(C)(C)C#N)cc2)c2c3cc(-c4cnc5ccccc5c4)ccc3ncc21 [Dactolisib] | 0.958 | 0.809 | 0.746 | 0.927 | 0.822 | 0.966 | 0.894 | 0.652 | 0.601 | 0.578 | 0.986 | 0.909 | 0.978 | 1.05 | 0.946 |
| Cc1nc(Nc2ncc(C(=O)Nc3c(C)cccc3Cl)s2)cc(N2CCN(CCO)CC2)n1 [Dasatinib] | 0.993 | 0.967 | 0.979 | 0.994 | 0.882 | 1.07 | 1.07 | 1.01 | 0.989 | 0.845 | 0.949 | 0.946 | 0.958 | 0.965 | 0.91 |
